One test has as its target T1, HO-2 (rat brain) (Rattus norvegicus, UniProt P23711).
T1 construct: brain microsomes were used as a source of HO-2; from tissue; host or cells: brain microsomal fraction of adult male Sprague-Dawley rats
T1 sequence (P23711 1-315): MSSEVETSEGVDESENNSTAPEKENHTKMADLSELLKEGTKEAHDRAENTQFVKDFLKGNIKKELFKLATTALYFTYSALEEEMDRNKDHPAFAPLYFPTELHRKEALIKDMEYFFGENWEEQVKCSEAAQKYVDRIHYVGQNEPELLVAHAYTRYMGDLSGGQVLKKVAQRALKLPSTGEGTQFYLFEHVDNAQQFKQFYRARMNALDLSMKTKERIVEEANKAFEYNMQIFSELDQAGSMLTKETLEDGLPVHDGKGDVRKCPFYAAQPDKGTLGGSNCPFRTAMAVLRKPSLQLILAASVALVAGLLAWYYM
Description: HO enzymatic activity in rat brain microsomal fraction (CO formed from methemalbumin, gas chromatography). The class given is biochemical. The procedure: (§1) Incubations for HO activity analysis were done under conditions for which the rate of CO formation (pmol CO×min^−1×mg protein^−1) was linear with respect to time and microsomal protein concentration. Briefly, reaction mixtures (150 μL) consisting of 100 mM phosphate buffer (pH 7.4), 50 μM methemalbumin, and 1 mg/mL protein were pre-incubated with the inhibitors at final concentrations ranging from 0.1-100 μM for 10 minutes at 37° C. Reactions were initiated by adding NADPH at a final concentration of 1 mM and incubations were performed for an additional 15 minutes at 37° C.
(§2) Incubations for HO activity analysis were done under conditions for which the rate of CO formation (pmol CO/mg protein/minute) was linear with respect to time and microsomal protein concentration. Briefly, reaction mixtures (150 μL) consisting of 100 mM phosphate buffer (pH 7.4), 50 μM methemalbumin and 1 mg/mL protein were pre-incubated with the vehicle (ethanol or water in which the inhibitors were dissolved), or inhibitors at final concentrations ranging from 0.1-1000 μM for 10 minutes at 37° C. Reactions were initiated by adding β-NADPH at a final concentration of 1 mM and incubations were carried out for an additional 15 minutes at 37° C. Reactions were stopped by instantly freezing the reaction mixture on pulverized dry ice and CO formation was measured by gas chromatography using a TA 3000R Process Gas Analyzer (Trace Analytical/Ametek, Newark, Del., USA).
(§3) The values on the abscissa represent the decimal logarithm of the inhibitor's concentration (in μM), whereas the values of the activity on the ordinate are expressed as a percentage of the control experiments without inhibitor.
(§4) The IC50 values for the replicate experiments were employed to generate the reported standard deviation value.

The target of the next test is T2, HO-1 (rat spleen) (Rattus norvegicus, UniProt P06762).
T2 construct: Spleen microsomes were used as a source of HO-1; from tissue; host or cells: spleen microsomal fraction of adult male Sprague-Dawley rats
T2 sequence (P06762 1-289): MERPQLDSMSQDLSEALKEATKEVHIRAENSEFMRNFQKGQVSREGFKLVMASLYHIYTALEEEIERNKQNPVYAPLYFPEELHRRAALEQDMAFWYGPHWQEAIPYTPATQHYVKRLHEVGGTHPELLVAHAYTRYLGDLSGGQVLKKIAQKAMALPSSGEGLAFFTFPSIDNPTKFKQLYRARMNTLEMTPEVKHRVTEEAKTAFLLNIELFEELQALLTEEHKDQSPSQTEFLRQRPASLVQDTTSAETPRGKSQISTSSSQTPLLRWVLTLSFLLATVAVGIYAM
In words: HO enzymatic activity in rat spleen microsomal fraction (CO formed from methemalbumin, gas chromatography). It is filed as biochemical. The procedure: as §1, §2, §3, §4

[1] abbreviates: rat brain microsomes, average ± standard deviation of replicate experiments, read-out: IC50 HO-2 (rat brain)/μM.
The mark [2] stands for this setting: rat spleen microsomes, average ± standard deviation of replicate experiments, read-out: IC50 HO-1 (rat spleen)/μM.

Counter-ions that a name gives are not always drawn. Like-named read-outs stand apart in the source and are kept apart here.

Take `O=C(Cn1ccnc1)c1ccc(-c2ccc(Br)cc2)cc1` [1-(4′-bromo-biphenyl-4-yl)-2-imidazol-1-yl-ethanone]: the IC50 came to 0.43 ± 0.07 µM at HO-2 (rat brain) (setting [1]) and 1.5 ± 0.5 µM at HO-1 (rat spleen) (setting [2]). In the case of `O=C(Cn1cncn1)c1ccc2c(c1)CCCC2` [1-(5,6,7,8-tetrahydro-naphthalen-2-yl)-2-[1,2,4]triazol-1-yl-ethanone], the IC50 on HO-2 (rat brain) (setting [1]) came out at 4 ± 1 µM; at HO-1 (rat spleen) (setting [2]), 0.24 ± 0.04 µM. For `OC(CCc1ccc(Br)cc1)Cn1ccnc1` (racemic) [(±)-4-(4-bromophenyl)-1-(1H-imidazol-1-yl)butan-2-ol hydrochloride], at HO-1 (rat spleen) (setting [2]), the IC50 was 0.14 ± 0.06 µM. For the compound `CC(C(=O)c1ccccc1)n1ccnc1` (racemic) [(±)-2-imidazol-1-yl-1-phenyl-propan-1-one hydrochloride], the IC50 against HO-2 (rat brain) is more than 100 µM; at HO-1 (rat spleen), 49 ± 2 µM. On to `C[C@H]1CO[C@](CCc2ccc(Cl)cc2)(Cn2ccnc2)O1` [(2S,4S)-2-[2-(4-chlorophenyl)ethyl]-2-[(1H-imidazol-1-yl)methyl]-4-methyl-1,3-dioxolane hydrochloride], for which the IC50 on HO-2 (rat brain) (setting [1]) is more than 100 µM; on HO-1 (rat spleen) (setting [2]), 12 ± 4 µM.

`c1cn(CCCCCCCCn2ccnc2)cn1` [1,8-bis-(1H-imidazol-1-yl)octane dihydrochloride]: the IC50 at HO-2 (rat brain) (setting [1]) and at HO-1 (rat spleen) (setting [2]) was more than 100 µM in each case. With `Clc1ccc(C2(Cn3ccnc3)OCCO2)c(Cl)c1` [1-[2-(2,4-dichloro-phenyl)-[1,3]dioxolan-2-ylmethyl]-1H-imidazole hydrochloride], the IC50 on HO-2 (rat brain) (setting [1]) is more than 100 µM; on HO-1 (rat spleen) (setting [2]) it was 29 ± 14 µM. For `c1cn(C2C3CC4CC(C3)CC2C4)cn1` (centres unmarked), in that order: more than 100 µM and more than 100 µM. For `c1ccc2cc(C3(Cn4ccnc4)OCCO3)ccc2c1` [1-(2-naphthalen-2-yl-[1,3]dioxolan-2-ylmethyl)-1H-imidazole hydrochloride], in that order: more than 100 µM and 2.63 ± 0.06 µM. As to `O=C(Cc1ccccc1)C(Cn1ccnc1)c1ccccc1` (racemic) [(±)-4-(1H-imidazol-1-yl)-1,3-diphenyl-butan-2-one hydrochloride], the IC50 at HO-2 (rat brain) (setting [1]) was more than 100 µM; on HO-1 (rat spleen) (setting [2]), 3.85 ± 0.07 µM. Regarding `COc1ccc(C(=O)Cn2ccnc2)cc1` [2-Imidazol-1-yl-1-(4-methoxy-phenyl)-ethanone hydrochloride], on HO-1 (rat spleen) (setting [2]), the IC50 came to 39 ± 13 µM. With `Brc1ccc(C2(Cn3cncn3)OCCO2)cc1` [1-[2-(4-bromo-phenyl)-[1,3]dioxolan-2-ylmethyl]-1H-[1,2,4]triazole], the IC50 at HO-2 (rat brain) (setting [1]) is more than 100 µM. As for `O=C(/C=C/c1ccccc1)CCn1ccnc1` [5-(1H-Imidazol-1-yl)-1-phenyl-pent-1-en-3-one hydrochloride], the IC50 on HO-1 (rat spleen) (setting [2]) was 22.6 ± 0.8 µM. Still for that read-out and setting: as for `O=C(Cn1ccnc1)C12CC3CC(CC(C3)C1)C2` [1-(adamantan-1-yl)-2-imidazol-1-yl-ethanone hydrochloride], the figure is 7 ± 1 µM; as for `O=C(CCc1ccc(Br)cc1)Cn1cncn1` [4-(4-bromophenyl)-1-[1,2,4]triazol-1-yl-butan-2-one hydrochloride], 0.39 ± 0.02 µM. For `Fc1ccc(CCC2(Cn3ccnc3)OCCO2)cc1` [2-[2-(4-fluorophenyl)ethyl]-2-[(1H-imidazol-1-yl)methyl]-1,3-dioxolane hydrochloride], the IC50 at HO-2 (rat brain) (setting [1]) was more than 100 µM.

Regarding `CC(=O)CCc1ccc(Br)cc1` [4-(4-bromophenyl)butan-2-one], at HO-1 (rat spleen) (setting [2]), the IC50 was more than 100 µM. With `Nc1ccccc1SC[C@H]1CO[C@@](CCc2ccc(Cl)cc2)(Cn2ccnc2)O1` [(2R,4R)-2-[2-(4-chlorophenyl)ethyl]-2-[(1H-imidazol-1-yl)methyl]-4-[{(2-aminophenyl)thio}meth-yl]-1,3-dioxolane dihydrochloride], at HO-2 (rat brain) (setting [1]), the IC50 was more than 100 µM. With `OC(CCc1ccc(F)cc1)Cn1ccnc1` (centres unmarked) [4-(4-fluorophenyl)-1-(1H-imidazol-1-yl)butan-2-ol hydrochloride], the IC50 at HO-1 (rat spleen) (setting [2]) came out at 1.4 ± 1.1 µM. Regarding `O=C(CCc1ccc(Br)cc1)Cn1ccnc1` [4-(4-bromophenyl)-1-(1H-imidazol-1-yl)butan-2-one hydrochloride], the IC50 at HO-1 (rat spleen) (setting [2]) came to 1.7 ± 0.7 µM. Still for that read-out and setting: as for `O=C(CCc1ccc(F)cc1)Cn1ccnc1` [4-(4-fluorophenyl)-1-(1H-imidazol-1-yl)butan-2-one hydrochloride], the figure is 2.7 ± 0.9 µM. Turning to `COc1ccc(CCN2CCC(Nc3nc4ccccc4n3Cc3ccc(F)cc3)CC2)cc1` [Astemizole, reference compound], on HO-2 (rat brain) (setting [1]), the IC50 stood at 30 ± 5 µM.

The compound `Nc1ccc(SC[C@H]2CO[C@@](CCc3ccc(Cl)cc3)(Cn3ccnc3)O2)cc1` [(2R,4R)-2-[2-(4-chlorophenyl)ethyl]-2-[(1H-imidazol-1-yl)methyl]-4-[{(4-aminophenyl)thio}meth-yl]-1,3-dioxolane dihydrochloride] registered an IC50 at HO-2 (rat brain) of more than 100 µM.

Consider `O=C(CCc1ccc(Cl)cc1)Cn1ccnc1` [4-(4-chlorophenyl)-1-(1H-imidazol-1-yl)butan-2-one hydrochloride], for which the IC50 at HO-1 (rat spleen) (setting [2]) was 4.7 ± 0.5 µM. On to `COC(=O)c1cncn1CC(=O)CCc1ccccc1` [3-(2-Oxo-4-phenyl-butyl)-3H-imidazole-4-carboxylic acid methyl ester], for which the IC50 at HO-1 (rat spleen) (setting [2]) was 69 ± 19 µM.

At HO-1 (rat spleen), `Nc1ccc(SC[C@@H]2CO[C@](CCc3ccc(Cl)cc3)(Cn3ccnc3)O2)cc1` [(2S,4S)-2-[2-(4-chlorophenyl)ethyl]-2-[(1H-imidazol-1-yl)methyl]-4-[{(4-aminophenyl)thio}meth-yl]-1,3-dioxolane dihydrochloride] gave an IC50 of 5 ± 2 µM.

Take `O=C(Cn1ccnc1)c1ccc(Cl)c(Cl)c1` [1-(3,4-Dichloro-phenyl)-2-imidazol-1-yl-ethanone]: the IC50 on HO-1 (rat spleen) (setting [2]) stood at 1.24 ± 0.07 µM. Turning to `Ic1ccc(CCC2(Cn3ccnc3)OCCO2)cc1` [2-[2-(4-iodophenyl)ethyl]-2-[(1H-imidazol-1-yl)methyl]-1,3-dioxolane hydrochloride], on HO-2 (rat brain) (setting [1]), the IC50 was more than 100 µM. As for `O=C(CCc1ccccc1)Cn1cccn1` [4-phenyl-1-pyrazol-1-yl-butan-2-one hydrochloride], on HO-2 (rat brain) (setting [1]), the IC50 is more than 100 µM. As for `O=C(Cn1ccnc1)c1cccc2ccccc12` [2-imidazol-1-yl-1-naphthalen-1-yl-ethanone hydrochloride], at HO-1 (rat spleen) (setting [2]), the IC50 was found to be 2.2 ± 0.1 µM. As to `OC(Cn1cncn1)(Cn1cncn1)c1ccc(F)cc1F` [Fluconazole, reference compound], on HO-1 (rat spleen) (setting [2]), the IC50 was 80 ± 6 µM.

As for `O=C(CCc1ccccc1)Cn1cnnn1` [4-Phenyl-1-tetrazol-1-yl-butan-2-one hydrochloride], at HO-2 (rat brain) (setting [1]), the IC50 turned out to be 30 ± 4 µM. `Nc1cccc(SC[C@H]2CO[C@@](CCc3ccc(Cl)cc3)(Cn3ccnc3)O2)c1` [(2R,4R)-2-[2-(4-chlorophenyl)ethyl]-2-[(1H-imidazol-1-yl)methyl]-4-[{(3-aminophenyl)thio}meth-yl]-1,3-dioxolane dihydrochloride]: the IC50 at HO-2 (rat brain) is more than 100 µM. For the compound `O=C(CCc1ccccc1)Cn1nccn1` [4-phenyl-1-[1,2,3]triazol-2-yl-butan-2-one], at HO-2 (rat brain) (setting [1]), the IC50 is more than 100 µM.

As to `Nc1ccccc1SC[C@@H]1CO[C@](CCc2ccc(Cl)cc2)(Cn2ccnc2)O1` [(2S,4S)-2-[2-(4-chlorophenyl)ethyl]-2-[(1H-imidazol-1-yl)methyl]-4-[{(2-aminophenyl)thio}meth-yl]-1,3-dioxolane dihydrochloride], the IC50 on HO-1 (rat spleen) (setting [2]) was determined as 5 ± 0.3 µM. The same measure, in the same setting: as for `Clc1ccc(CC[C@@]2(Cn3ccnc3)OCC(COc3ccc(-c4ccccc4)cc3)O2)cc1` (stereo in doubt) [(2R,4S)-1-{4-(biphenyl-4-yloxymethyl)-2-[2-(4-chloro-phenyl)-ethyl]-[1,3]dioxolan-2-ylmethyl}-1H-imidazole hydrochloride], the figure is 2 ± 1 µM. With `O=C(CCc1ccccc1)Cn1ccnn1` [4-phenyl-1-(1H-[1,2,3]triazol-1-yl)butan-2-one], at HO-2 (rat brain) (setting [1]), the IC50 was more than 100 µM. Same read-out and setting: as for `CC(C)(C(=O)c1ccccc1)n1ccnc1` [2-Imidazol-1-yl-2-methyl-1-phenyl-propan-1-one], the figure is more than 100 µM.

The record behind these values is patent US20140155445A1, “Compounds and Methods for Treating Cancer and Diseases of the Central Nervous System” (Osta Biotechnologies Inc., priority 2007, published 2014).
